Results from patent US20190029252A1, “Use of Herbicide-tolerant Protein” (BEIJING DABEINONG TECHNOLOGY GROUP CO., LTD., priority 2016, published 2019).

How the values were obtained:
Assay type in all cases: in vivo
[1] = test system: At cytoplasmic ALT-3-01 T1 plants; assay: Herbicide tolerance of Arabidopsis thaliana T1 plants, sprayed, resistance classes counted 14 days after spraying; details: sprayed at 1-fold field concentration
Excerpt: (§1) T1 transformants were initially selected from the background of untransformed seeds using a glufosinate selection scheme. About 40000 T1 seeds were screened, and 380 T1 positive transformants (PAT gene) were identified with a transformation efficiency of about 0.95%. The plants that were transformed with the recombinant expression vector DBN100632 were Arabidopsis thaliana plants having an ALT-1-01 nucleotide sequence located in the cytoplasm introduced (At cytoplasmic ALT-1-01), and the plants that were transformed with the recombinant expression vector DBN100631 were Arabidopsis thaliana plants having an ALT-1-01 nucleotide sequence located in the chloroplast introduced (At chloroplastic ALT-1-01); the plants that were transformed with the recombinant expression vector DBN100634 were Arabidopsis thaliana plants having an ALT-2-01 nucleotide sequence located in the cytoplasm introduced (At cytoplasmic ALT-2-01), and the plants that were transformed with the recombinant expression vector DBN100633 were Arabidopsis thaliana plants having an ALT-2-01 nucleotide sequence located in the chloroplast introduced (At chloroplastic ALT-2-01); and the plants that were transformed with the recombinant expression vector DBN100636 were Arabidopsis thaliana plants having an ALT-3-01 nucleotide sequence located in the cytoplasm introduced (At cytoplasmic ALT-3-01), and the plants that were transformed with the recombinant expression vector DBN100635 were Arabidopsis thaliana plants having an ALT-3-01 nucleotide sequence located in the chloroplast introduced (At chloroplastic ALT-3-01).
(§2) Plants were counted for the resistance situations 14 days after spraying: those having a consistent growth status with the blank solvent (water) group after 14 days were classified as highly resistant plants, those having a bolting height less than ½ of that of the blank solvent (water) group after 14 days were classified as moderately resistant plants, those still not capable of bolting after 14 days were classified as poorly resistant plants, and those dead after 14 days were classified as non-resistant plants. Since each Arabidopsis thaliana T1 plant was an independent transformation event, a significant difference in individual T1 responses could be expected at a given dose.
as §2, with “situation” for “situations”

[2] = test system: At chloroplastic ALT-1-01 T1 plants; assay: as above; details: sprayed at 1-fold field concentration
Excerpt: as §1, §2
as §2, with “situation” for “situations”

[3] = test system: At cytoplasmic ALT-2-01 T1 plants; assay: as above; details: sprayed at 1-fold field concentration
Excerpt: as §1, §2
as §2, with “situation” for “situations”

[4] = test system: At chloroplastic ALT-3-01 T1 plants; assay: as above; details: sprayed at 1-fold field concentration
Excerpt: as §1, §2
as §2, with “situation” for “situations”

[5] = test system: At cytoplasmic ALT-1-01 T1 plants; assay: as above; details: sprayed at 1-fold field concentration
Excerpt: as §1, §2
as §2, with “situation” for “situations”

[6] = test system: At chloroplastic ALT-2-01 T1 plants; assay: as above; details: sprayed at 1-fold field concentration
Excerpt: as §1, §2
as §2, with “situation” for “situations”

[7] = test system: transgenic maize plants (ALT-1, ALT-2 and ALT-3); assay: Tribenuron-methyl tolerance of transgenic maize plants, overall conclusion; details: 72 g ai/ha
Protocol: (§3) The damage degree caused by the herbicide was measured for each plant according to the plant growth status 3 days after spraying (3 DAT), 7 days after spraying (7 DAT), 14 days after spraying (14 DAT) and 21 days after spraying (21 DAT), respectively: considering a growth status equivalent to that of the untreated plants as having a damage degree of 0%; considering conditions of leaves being partially chlorotic and yellow but substantially not affecting the plant normal growth as having a damage degree of 50%; and considering the whole plant being purple and dying as having a damage degree of 100%. There were 2 strains in Zm cytoplasmic ALT-1-02 maize plants in total (S13 and S14), 2 strains in Zm chloroplastic ALT-1-02 maize plants in total (S15 and S16), 2 strains in Zm cytoplasmic ALT-2-02 maize plants in total (S17 and S18), 2 strains in Zm chloroplastic ALT-2-02 maize plants in total (S19 and S20), 2 strains in Zm cytoplasmic ALT-3-02 maize plants in total (S21 and S22), 2 strains in Zm chloroplastic ALT-3-02 maize plants in total (S23 and S24), and 1 strain in wild-type maize plants (CK2) in total; and 10-15 plants were selected from each strain and tested.

[8] = test system: transformed Arabidopsis thaliana T1 plants (ALT-1, ALT-2 and ALT-3); assay: Herbicide tolerance of transgenic Arabidopsis thaliana T1 plants, overall conclusion; details: transgenic Arabidopsis thaliana T1 plants; 18 g ai/ha
Excerpt: as §2
as §2, with “situation” for “situations”

[9] = test system: Zm chloroplastic ALT-2-02 maize plants; assay: Tribenuron-methyl tolerance of maize plants, damage degree after spraying; details: 72 g ai/ha (4-fold field concentration)
Protocol: as §3

[10] = test system: Zm cytoplasmic ALT-1-02 maize plants; assay: as above; details: 72 g ai/ha (4-fold field concentration)
Protocol: as §3

[11] = test system: wild-type Arabidopsis thaliana plants; assay: Herbicide tolerance of Arabidopsis thaliana plants, sprayed, resistance classes counted 14 days after spraying
Excerpt: as §1, §2
as §2, with “situation” for “situations”

[12] = maize strain S19 (Zm chloroplastic ALT-2-02)
[13] = maize strain S20 (Zm chloroplastic ALT-2-02)
[14] = maize strain S13 (Zm cytoplasmic ALT-1-02)
[15] = maize strain S14 (Zm cytoplasmic ALT-1-02)
[16] = wild-type, sprayed at 1-fold field concentration, 14 days after spraying

COC(=O)c1ccccc1S(=O)(=O)NC(=O)N(C)c1nc(C)nc(OC)n1 [tribenuron-methyl, methyl 2-[N-(4-methoxy-6-methyl-1,3,5-triazin-2-yl)-N-methylaminoformamidosulfonyl]benzoate]
Highly resistant (number of plants) [1]: 22
Moderately resistant (number of plants) [1]: 1
Non-resistant (number of plants) [1]: 3
Poorly resistant (number of plants) [1]: 1
Highly resistant (number of plants) [2]: 28
Moderately resistant (number of plants) [2]: 0
Non-resistant (number of plants) [2]: 2
Poorly resistant (number of plants) [2]: 0
Highly resistant (number of plants) [3]: 25
Moderately resistant (number of plants) [3]: 1
Non-resistant (number of plants) [3]: 3
Poorly resistant (number of plants) [3]: 1
Highly resistant (number of plants) [4]: 27
Moderately resistant (number of plants) [4]: 0
Non-resistant (number of plants) [4]: 2
Poorly resistant (number of plants) [4]: 0
Highly resistant (number of plants) [5]: 24
Moderately resistant (number of plants) [5]: 2
Non-resistant (number of plants) [5]: 1
Poorly resistant (number of plants) [5]: 1
Highly resistant (number of plants) [6]: 29
Moderately resistant (number of plants) [6]: 0
Non-resistant (number of plants) [6]: 1
Poorly resistant (number of plants) [6]: 1
herbicide tolerance conferred by thifensulfuron hydrolase (in words) [7]: a high level of tribenuron-methyl herbicide tolerance
herbicide tolerance conferred by thifensulfuron hydrolase (in words) [8]: conferred tribenuron-methyl herbicide tolerance
Average damage % 3DAT [9, 12]: 0%
Average damage % 7DAT [9, 12]: 0%
Average damage % 14DAT [9, 12]: 0%
Average damage % 21DAT [9, 12]: 0%
Average damage % 3DAT [9, 13]: 0%
Average damage % 7DAT [9, 13]: 0%
Average damage % 14DAT [9, 13]: 0%
Average damage % 21DAT [9, 13]: 0%
Average damage % 3DAT [10, 14]: 4%
Average damage % 7DAT [10, 14]: 0%
Average damage % 14DAT [10, 14]: 0%
Average damage % 21DAT [10, 14]: 0%
Average damage % 3DAT [10, 15]: 5%
Average damage % 7DAT [10, 15]: 0%
Average damage % 14DAT [10, 15]: 0%
Average damage % 21DAT [10, 15]: 0%
herbicide tolerance (in words) ([11]; wild-type Arabidopsis thaliana plants, 18 g ai/ha): none of the wild-type Arabidopsis thaliana plants was tolerant
Highly resistant (number of plants) [11, 16]: 0
Moderately resistant (number of plants) [11, 16]: 0
Non-resistant (number of plants) [11, 16]: 32
Poorly resistant (number of plants) [11, 16]: 0
